Laboratory results taken from patent publication US6737383B1, “Herbicidal oxadiazolidines” (priority 1999, dated 2004).

How the values were obtained:
sugar beet = experiment: Test B pre/postemergence sugar beet; type: in vivo, Beta vulgaris; settings: for Sugarbeets plant response rating: Postemergence; for Plant response rating, Sugarbeets: Preemergence
In short: (§1)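 Test chemicals in a non-phytotoxic solvent mixture with surfactant were sprayed preemergence onto planted seeds and postemergence onto plants 2 to 18 cm tall (1- to 4-leaf stage). After twelve to sixteen days in a greenhouse, injury was visually rated against untreated controls from 0 (no effect) to 10 (complete control).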

bamyardgrass = experiment: Test B flood test barnyardgrass; type: in vivo, Echinochloa crus-galli
In short: (§2)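 Plants were grown to the 2-leaf stage before treatment with test chemical, then held in a greenhouse for twelve to sixteen days. Injury was visually rated against untreated controls on a 0–10 scale, where 0 is no effect and 10 is complete control.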

corn = experiment: Test B pre/postemergence corn; type: in vivo, Zea mays; settings: for Corn plant response rating: Postemergence; for Plant response rating, Corn: Preemergence
In short: as §1

wheat = experiment: Test B pre/postemergence wheat; type: in vivo, Triticum aestivum; settings: for Wheat plant response rating: Postemergence; for Plant response rating, Wheat: Preemergence
In short: as §1

rape = experiment: Test B pre/postemergence rape; type: in vivo, Brassica napus; settings: for Rape plant response rating: Postemergence; for Plant response rating, Rape: Preemergence
In short: as §1

wild oat = experiment: Test B pre/postemergence wild oat; type: in vivo, Avena fatua; settings: for Wild oats plant response rating: Postemergence; for Plant response rating, Wild oats: Preemergence
In short: as §1

surinam grass = experiment: Test B pre/postemergence surinam grass; type: in vivo, Brachiaria decumbens; settings: for B. signalgrass plant response rating: Postemergence; for Plant response rating, B. signalgrass: Preemergence
In short: as §1

duck salad = experiment: Test B flood test duck salad; type: in vivo, Heteranthera limosa
In short: as §2

morningglory = experiment: Test B pre/postemergence morningglory; type: in vivo, Ipomoea hederacea; settings: for Morningglory plant response rating: Postemergence; for Plant response rating, Morningglory: Preemergence
In short: as §1

crabgrass = experiment: Test B pre/postemergence crabgrass; type: in vivo, Digitaria sanguinalis; settings: for Crabgrass plant response rating: Postemergence; for Plant response rating, Crabgrass: Preemergence
In short: as §1

blackgrass = experiment: Test B pre/postemergence blackgrass; type: in vivo, Alopecurus myosuroides; settings: for Blackgrass plant response rating: Postemergence; for Plant response rating, Blackgrass: Preemergence
In short: as §1

velvetleaf = experiment: Test B pre/postemergence velvetleaf; type: in vivo, Abutilon theophrasti; settings: for Velvetleaf plant response rating: Postemergence; for Plant response rating, Velvetleaf: Preemergence
In short: as §1

cocklebur = experiment: Test B pre/postemergence cocklebur; type: in vivo, Xanthium strumarium; settings: for Cocklebur plant response rating: Postemergence; for Plant response rating, Cocklebur: Preemergence
In short: as §1

bedstraw = experiment: Test B pre/postemergence bedstraw; type: in vivo, Galium aparine; settings: for Bedstraw plant response rating: Postemergence
In short: as §1

rice = experiment: Test B flood test rice; type: in vivo, Oryza sativa
In short: as §2

smallflower flatsedge = experiment: Test B flood test smallflower flatsedge; type: in vivo, Cyperus difformis
In short: as §2

giant foxtail = experiment: Test B pre/postemergence giant foxtail; type: in vivo, Setaria faberii; settings: for Giant foxtail plant response rating: Postemergence; for Plant response rating, Giant foxtail: Preemergence
In short: as §1

pigweed = experiment: Test B pre/postemergence pigweed; type: in vivo, Amaranthus retroflexus; settings: for Redroot pigweed plant response rating: Postemergence; for Plant response rating, Redroot pigweed: Preemergence
In short: as §1

soybean = experiment: Test B pre/postemergence soybean; type: in vivo, Glycine max; settings: for Soybean plant response rating: Postemergence; for Plant response rating, Soybean: Preemergence
In short: as §1

purple nutsedge = experiment: Test B pre/postemergence purple nutsedge; type: in vivo, Cyperus rotundus; settings: for Nutsedge plant response rating: Postemergence; for Plant response rating, Nutsedge: Preemergence
In short: as §1

[1] = Rate 125 g/ha, scale of 0 to 10 where 0 is no effect and 10 is complete control
[2] = Rate 500 g/ha, scale of 0 to 10 where 0 is no effect and 10 is complete control
[3] = Rate 250 g/ha, scale 0 to 10, 0 is no effect, 10 is complete control
[4] = Rate 500 g/ha, scale 0 to 10, 0 is no effect, 10 is complete control
[5] = Rate 1000 g/ha, scale 0 to 10 (0 no effect, 10 complete control)
[6] = Pre-emergence, Rate 1000 g/ha, scale 0 to 10 (0 no effect, 10 complete control)
[7] = Rate 125 g/ha, under heading Pre-emergence, flood test species, visual evaluation after twelve to sixteen days
[8] = Rate 250 g/ha, Pre-emergence (flood test species), scale 0 to 10, 0 is no effect, 10 is complete control
[9] = Rate 500 g/ha, Pre-emergence section of Table B, 0 to 10 scale (0 no effect, 10 complete control)
[10] = Rate 250 g/ha, scale 0 to 10 (0 no effect, 10 complete control)

SMILES: CCOC(=O)CC(C(=O)OCC)n1c(=O)on(C(=O)N(c2ccc(Cl)cc2)C(C)C)c1=O (stereo not drawn) [Compound 681]
- Sugarbeets plant response rating (sugar beet; [1]): 0
- Plant response rating, Sugarbeets (sugar beet; [1]): 0
- Plant response rating, Sugarbeets (sugar beet; [2]): 0
- Sugarbeets plant response rating (sugar beet; [3]): 0
- Sugarbeets plant response rating (sugar beet; [4]): 0
- Plant response rating, Sugarbeets (sugar beet; [5]): 0
- Barnyardgrass plant response rating (bamyardgrass; [6]): 0
- Barnyardgrass plant response rating (0 to 10 scale, 0 is no effect, 10 is complete control) (bamyardgrass; [7]): 0
- Barnyardgrass plant response rating (bamyardgrass; [8]): 0
- Barnyardgrass plant response rating (bamyardgrass; [9]): 0
- Corn plant response rating (corn; [1]): 0
- Corn plant response rating (corn; [5]): 0
- Plant response rating, Corn (corn; [1]): 0
- Plant response rating, Corn (corn; [10]): 0
- Plant response rating, Corn (corn; [2]): 0
- Corn plant response rating (corn; [3]): 0
- Corn plant response rating (corn; [4]): 0
- Plant response rating, Corn (corn; [5]): 0
- Wheat plant response rating (wheat; [1]): 0
- Plant response rating, Wheat (wheat; [1]): 0
- Plant response rating, Wheat (wheat; [2]): 0
- Wheat plant response rating (wheat; [3]): 0
- Wheat plant response rating (wheat; [4]): 0
- Plant response rating, Wheat (wheat; [5]): 0
- Rape plant response rating (rape; [1]): 0
- Rape plant response rating (rape; [5]): 0
- Plant response rating, Rape (rape; [1]): 0
- Plant response rating, Rape (rape; [2]): 0
- Rape plant response rating (rape; [3]): 0
- Rape plant response rating (rape; [4]): 0
- Plant response rating, Rape (rape; [5]): 0
- Wild oats plant response rating (wild oat; [1]): 0
- Plant response rating, Wild oats (wild oat; [1]): 0
- Plant response rating, Wild oats (wild oat; [2]): 0
- Wild oats plant response rating (wild oat; [3]): 0
- Wild oats plant response rating (wild oat; [4]): 0
- Plant response rating, Wild oats (wild oat; [5]): 3
- B. signalgrass plant response rating (surinam grass; [1]): 0
- B. signalgrass plant response rating (surinam grass; [5]): 0
- Plant response rating, B. signalgrass (surinam grass; [1]): 0
- Plant response rating, B. signalgrass (surinam grass; [10]): 0
- Plant response rating, B. signalgrass (surinam grass; [2]): 0
- B. signalgrass plant response rating (surinam grass; [3]): 0
- B. signalgrass plant response rating (surinam grass; [4]): 0
- Plant response rating, B. signalgrass (surinam grass; [5]): 4
- Ducksalad plant response rating (duck salad; [6]): 0
- Ducksalad plant response rating (0 to 10 scale, 0 is no effect, 10 is complete control) (duck salad; [7]): 0
- Ducksalad plant response rating (duck salad; [8]): 0
- Ducksalad plant response rating (duck salad; [9]): 0
- Morningglory plant response rating (morningglory; [1]): 0
- Plant response rating, Morningglory (morningglory; [1]): 0
- Plant response rating, Morningglory (morningglory; [2]): 0
- Morningglory plant response rating (morningglory; [3]): 0
- Morningglory plant response rating (morningglory; [4]): 7
- Plant response rating, Morningglory (morningglory; [5]): 0
- Crabgrass plant response rating (crabgrass; [1]): 0
- Crabgrass plant response rating (crabgrass; [5]): 2
- Plant response rating, Crabgrass (crabgrass; [1]): 0
- Plant response rating, Crabgrass (crabgrass; [10]): 2
- Plant response rating, Crabgrass (crabgrass; [2]): 7
- Crabgrass plant response rating (crabgrass; [3]): 0
- Crabgrass plant response rating (crabgrass; [4]): 0
- Plant response rating, Crabgrass (crabgrass; [5]): 8
- Blackgrass plant response rating (blackgrass; [1]): 0
- Blackgrass plant response rating (blackgrass; [5]): 4
- Plant response rating, Blackgrass (blackgrass; [1]): 0
- Plant response rating, Blackgrass (blackgrass; [10]): 1
- Plant response rating, Blackgrass (blackgrass; [2]): 3
- Blackgrass plant response rating (blackgrass; [3]): 0
- Blackgrass plant response rating (blackgrass; [4]): 0
- Plant response rating, Blackgrass (blackgrass; [5]): 6
- Velvetleaf plant response rating (velvetleaf; [1]): 0
- Plant response rating, Velvetleaf (velvetleaf; [1]): 0
- Plant response rating, Velvetleaf (velvetleaf; [2]): 0
- Velvetleaf plant response rating (velvetleaf; [3]): 0
- Velvetleaf plant response rating (velvetleaf; [4]): 0
- Plant response rating, Velvetleaf (velvetleaf; [5]): 0
- Cocklebur plant response rating (cocklebur; [1]): 0
- Cocklebur plant response rating (cocklebur; [5]): 0
- Plant response rating, Cocklebur (cocklebur; [1]): 0
- Plant response rating, Cocklebur (cocklebur; [10]): 0
- Plant response rating, Cocklebur (cocklebur; [2]): 0
- Cocklebur plant response rating (cocklebur; [3]): 0
- Cocklebur plant response rating (cocklebur; [4]): 0
- Bedstraw plant response rating (bedstraw; [1]): 0
- Plant response rating, Bedstraw (bedstraw; Preemergence, Rate 125 g/ha, scale of 0 to 10 where 0 is no effect and 10 is complete control): 0
- Bedstraw plant response rating (bedstraw; [3]): 0
- Rice plant response rating (rice; [6]): 0
- Rice plant response rating (0 to 10 scale, 0 is no effect, 10 is complete control) (rice; [7]): 0
- Rice plant response rating (rice; [8]): 0
- Rice plant response rating (rice; [9]): 0
- S. Flatsedge plant response rating (smallflower flatsedge; [6]): 0
- S. Flatsedge plant response rating (0 to 10 scale, 0 is no effect, 10 is complete control) (smallflower flatsedge; [7]): 0
- S. Flatsedge plant response rating (smallflower flatsedge; [8]): 0
- S. Flatsedge plant response rating (smallflower flatsedge; [9]): 0
- Giant foxtail plant response rating (giant foxtail; [1]): 0
- Giant foxtail plant response rating (giant foxtail; [5]): 3
- Plant response rating, Giant foxtail (giant foxtail; [1]): 0
- Plant response rating, Giant foxtail (giant foxtail; [2]): 9
- Giant foxtail plant response rating (giant foxtail; [3]): 0
- Giant foxtail plant response rating (giant foxtail; [4]): 0
- Plant response rating, Giant foxtail (giant foxtail; [5]): 9
- Redroot pigweed plant response rating (pigweed; [1]): 0
- Redroot pigweed plant response rating (pigweed; [5]): 7
- Plant response rating, Redroot pigweed (pigweed; [1]): 0
- Plant response rating, Redroot pigweed (pigweed; [2]): 3
- Redroot pigweed plant response rating (pigweed; [3]): 2
- Redroot pigweed plant response rating (pigweed; [4]): 6
- Plant response rating, Redroot pigweed (pigweed; [5]): 5
- Soybean plant response rating (soybean; [1]): 0
- Plant response rating, Soybean (soybean; [1]): 0
- Plant response rating, Soybean (soybean; [2]): 0
- Soybean plant response rating (soybean; [3]): 0
- Soybean plant response rating (soybean; [4]): 1
- Plant response rating, Soybean (soybean; [5]): 0
- Nutsedge plant response rating (purple nutsedge; [1]): 0
- Plant response rating, Nutsedge (purple nutsedge; [1]): 0
- Plant response rating, Nutsedge (purple nutsedge; [2]): 0
- Nutsedge plant response rating (purple nutsedge; [3]): 0
- Plant response rating, Nutsedge (purple nutsedge; [5]): 0
